Values quoted from earlier work in patent publication US12678449B2, “Compositions including cannabis and avocado/soybean unsaponifiables and methods of use” (Nutramax Laboratories, Inc., priority 2019, dated 2026).
Read-outs that look alike come from different tables or passages of the source.

How the values were obtained:
[1] = beagle dogs, oral, single dose
[2] = human

C=C(C)[C@@H]1CCC(C)=C[C@H]1c1c(O)cc(CCCCC)cc1O [CBD, 2-[(1R,6R)-3-methyl-6-prop-1-en-2-ylcyclohex-2-en-1-yl]-5-pentylbenzene-1,3-diol]
median maximal concentration of CBD in serum ([1]; 2 mg/kg CBD in olive oil): 102.3 ng/mL | median maximal concentration of CBD in serum ([1]; 8 mg/kg CBD in olive oil): 590.8 ng/mL | CMAX ([2]; 10 mg dose of CBD (Guy et al.)): 2.47 ng/mL | mean plasma concentration of CBD ([2]; 1 h after oral intake of 5.4 mg dose (Nadulski et al.)): 0.95 ng/mL | mean plasma level of CBD ([2]; oral administration of 40 mg of CBD (Agurell et al.)): 5.5 ng/mL
